Where “and” joins values, the source holds several entries; their conditions need not be identical. Equal values may be shown once.
Assays:
[1] = molecular target: E. coli. RNA polymerase holoenzyme supplemented with additional recombinant sigma 70 (Escherichia coli, UniProt P00579+P0A7Z4+P0A8T7+P0A8V2); assay: Prokaryotic (E. coli) RNA Polymerase Assay (Promoter Specific); type: biochemical; conditions: positive control at 20 ug/ml, column 12 rows A and B, plates #1 and #2
Excerpt: Prokaryotic (E. coli) RNA Polymerase Assay (Promoter Specific)
In this example, the targeted polymerase is the E. coli. RNA polymerase holoenzyme (α2 ββ'[…] ) supplemented with additional recombinant sigma 70 to increase the percentage of promoter specific transcription over non-specific elongation. GTP is omitted from the assay mixture. The substrate is a pBR-based plasmid with sigma 70, -10+-30 recognition sequences and a 260 nt G-free cassette
1. Make 1.45× assay buffer from 5× stock (1× final with extract and enzyme added). Add fresh components (polyethyleneglycol (PEG), dithiothreitol (DTT), and DNA) to final 1x solution; 50 mM Tris-Ac at pH 7.8, 100 μm ATP, 100 μM UTP, 1 μM CTP, 20 μg Bovine Serum Albumin/80 μl, PEG 3%, plasmid DNA template (described above), 0.3-0.5 μg/80 μl (from dose response), 2 mM DTT. Filter using 0.45 μm filter.
2. Make 1× storage buffer (50 mM Tris-Ac, 100 mM KAc, 100 mM MgCl2, 0.25 mg/ml BSA, 5 mM DTT). Add enzyme and [[…]]-CTP to a concentration such that there are about 80-100K cpm CTP in 15 μl, and enough enzyme (from dose response) to get 3000 cpm incorporated.
(§1) 3. Add 60 μl of assay buffer to filterplate.
(§2) 4. Add 8 μl of extract or compounds to filterplate.
5. Add 15 μl of ^33 P CTP+enzyme to filterplate. Shake 10 min.
(§3) 6. Incubate 45 min at 34° C.
7. Add 100 μl of DEAE Sephacell (Pharmacia) beads (20% slurry in 60% methanol, 20 mM EDTA, 0.02% NP-40). […]

[2] = test system: Eukaryotic (Yeast) RNA Polymerase II; assay: Eukaryotic (Yeast) RNA Polymerase II Assay (Promoter Nonspecific); type: biochemical, Candida; conditions: positive control at 20 ug/ml, column 12 rows A and B, plates #1 and #2
Method: Eukaryotic (Yeast) RNA Polymerase II Assay (Promoter Nonspecific)
1. Make 1.45× assay buffer from 5× stock (1× final with extract and enzyme added). Add fresh components (PEG, DTT, and MnCl2) to final 1× solution: 50 mM Tris-Acetate at pH 7.8, 50 mM KAc, 0.4 mM ATP, 0.2 mM GTP and UTP, 1 μM CTP, 20 μg BSA/80 μl, PEG 3%, single stranded DNA, 0.2 μg/80 μl, 2 mM DTT, and 2 mM MnCl2. Filtrate using 0.45 μm filter.
2. Make 1× storage buffer (50 mM Tris-Ac, 100 mM KAc, 0.25 mg/ml BSA, 5 mM DTT). Add enzyme and [α-^33 P]-CTP to a concentration such that there are about 80-100 CK cpm of hot CTP in 15 μl, and enough enzyme (from dose response) to get 3000 cpm incorporated.
as §1, §2
5. Add 15 μl hot CTP+enzyme to filterplate. Shake 10 min.
as §3
7. Add 100 μl of DEAE beads (20% slurry in 60% methanol, 20 mM EDTA, 0.02% NP-40). Incubate 1 hr.
8. Wash 5 times (300 μl each) with 0.5M dibasic NaPi, 0.5% NP-40, 10% ethanol.
9. Seal bottom, add 160 μl cocktail, seal top, and count.
Column 1, rows A-D of both plate #1 and #2 are background counts. Column 1, rows E-H of both plate #1 and #2 are counts obtained without the additon of label. Column 12, rows A and B of both plate #1 and #2 are positive controls using the eukaryotic RNA polymerase II inhibitor α-amanitinat 20 ug/ml. […]

E. coli. RNA polymerase holoenzyme supplemented with additional recombinant sigma 70, sequence (P0A7Z4 whole entry): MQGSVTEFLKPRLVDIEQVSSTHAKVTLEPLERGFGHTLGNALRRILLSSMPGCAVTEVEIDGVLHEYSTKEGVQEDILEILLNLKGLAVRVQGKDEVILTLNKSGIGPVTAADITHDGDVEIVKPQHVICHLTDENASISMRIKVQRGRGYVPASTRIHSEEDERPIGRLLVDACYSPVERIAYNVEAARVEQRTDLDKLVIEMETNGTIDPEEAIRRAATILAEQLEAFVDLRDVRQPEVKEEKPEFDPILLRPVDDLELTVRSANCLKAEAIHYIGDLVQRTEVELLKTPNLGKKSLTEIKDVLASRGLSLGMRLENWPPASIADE
E. coli. RNA polymerase holoenzyme supplemented with additional recombinant sigma 70, sequence (P0A8V2 whole entry): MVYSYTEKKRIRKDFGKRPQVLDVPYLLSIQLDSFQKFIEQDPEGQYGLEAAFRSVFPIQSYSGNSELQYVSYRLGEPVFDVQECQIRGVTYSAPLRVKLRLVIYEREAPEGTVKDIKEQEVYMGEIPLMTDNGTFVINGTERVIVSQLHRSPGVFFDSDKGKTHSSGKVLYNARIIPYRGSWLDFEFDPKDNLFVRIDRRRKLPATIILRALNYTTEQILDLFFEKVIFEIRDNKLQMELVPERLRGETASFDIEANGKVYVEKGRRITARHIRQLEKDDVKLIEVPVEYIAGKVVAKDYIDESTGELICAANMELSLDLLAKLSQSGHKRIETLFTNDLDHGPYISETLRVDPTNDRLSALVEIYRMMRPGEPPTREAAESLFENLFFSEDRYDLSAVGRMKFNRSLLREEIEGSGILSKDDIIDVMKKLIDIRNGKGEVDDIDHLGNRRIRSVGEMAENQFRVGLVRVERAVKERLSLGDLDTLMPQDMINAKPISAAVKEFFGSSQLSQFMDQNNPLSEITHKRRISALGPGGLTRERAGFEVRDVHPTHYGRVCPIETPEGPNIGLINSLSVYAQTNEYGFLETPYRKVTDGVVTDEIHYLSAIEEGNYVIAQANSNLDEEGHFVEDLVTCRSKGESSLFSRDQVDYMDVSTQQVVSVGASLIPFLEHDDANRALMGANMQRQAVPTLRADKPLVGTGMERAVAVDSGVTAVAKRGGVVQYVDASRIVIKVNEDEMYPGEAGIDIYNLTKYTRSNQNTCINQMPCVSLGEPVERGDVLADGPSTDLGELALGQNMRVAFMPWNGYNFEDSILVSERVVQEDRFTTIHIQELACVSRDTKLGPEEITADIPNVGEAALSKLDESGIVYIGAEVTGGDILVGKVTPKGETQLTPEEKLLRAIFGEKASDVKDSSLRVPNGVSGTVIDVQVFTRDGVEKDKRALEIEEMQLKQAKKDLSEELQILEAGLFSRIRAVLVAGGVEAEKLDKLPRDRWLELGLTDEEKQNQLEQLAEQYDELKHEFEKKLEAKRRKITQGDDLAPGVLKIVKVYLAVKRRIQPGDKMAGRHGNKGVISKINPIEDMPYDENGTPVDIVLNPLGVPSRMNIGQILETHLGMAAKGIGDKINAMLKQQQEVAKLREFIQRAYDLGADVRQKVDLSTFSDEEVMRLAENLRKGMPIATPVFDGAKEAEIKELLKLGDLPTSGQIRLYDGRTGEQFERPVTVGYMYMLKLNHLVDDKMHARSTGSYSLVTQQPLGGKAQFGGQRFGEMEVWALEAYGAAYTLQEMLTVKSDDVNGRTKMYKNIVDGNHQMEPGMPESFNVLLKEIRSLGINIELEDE
E. coli. RNA polymerase holoenzyme supplemented with additional recombinant sigma 70, sequence (P0A8T7 whole entry): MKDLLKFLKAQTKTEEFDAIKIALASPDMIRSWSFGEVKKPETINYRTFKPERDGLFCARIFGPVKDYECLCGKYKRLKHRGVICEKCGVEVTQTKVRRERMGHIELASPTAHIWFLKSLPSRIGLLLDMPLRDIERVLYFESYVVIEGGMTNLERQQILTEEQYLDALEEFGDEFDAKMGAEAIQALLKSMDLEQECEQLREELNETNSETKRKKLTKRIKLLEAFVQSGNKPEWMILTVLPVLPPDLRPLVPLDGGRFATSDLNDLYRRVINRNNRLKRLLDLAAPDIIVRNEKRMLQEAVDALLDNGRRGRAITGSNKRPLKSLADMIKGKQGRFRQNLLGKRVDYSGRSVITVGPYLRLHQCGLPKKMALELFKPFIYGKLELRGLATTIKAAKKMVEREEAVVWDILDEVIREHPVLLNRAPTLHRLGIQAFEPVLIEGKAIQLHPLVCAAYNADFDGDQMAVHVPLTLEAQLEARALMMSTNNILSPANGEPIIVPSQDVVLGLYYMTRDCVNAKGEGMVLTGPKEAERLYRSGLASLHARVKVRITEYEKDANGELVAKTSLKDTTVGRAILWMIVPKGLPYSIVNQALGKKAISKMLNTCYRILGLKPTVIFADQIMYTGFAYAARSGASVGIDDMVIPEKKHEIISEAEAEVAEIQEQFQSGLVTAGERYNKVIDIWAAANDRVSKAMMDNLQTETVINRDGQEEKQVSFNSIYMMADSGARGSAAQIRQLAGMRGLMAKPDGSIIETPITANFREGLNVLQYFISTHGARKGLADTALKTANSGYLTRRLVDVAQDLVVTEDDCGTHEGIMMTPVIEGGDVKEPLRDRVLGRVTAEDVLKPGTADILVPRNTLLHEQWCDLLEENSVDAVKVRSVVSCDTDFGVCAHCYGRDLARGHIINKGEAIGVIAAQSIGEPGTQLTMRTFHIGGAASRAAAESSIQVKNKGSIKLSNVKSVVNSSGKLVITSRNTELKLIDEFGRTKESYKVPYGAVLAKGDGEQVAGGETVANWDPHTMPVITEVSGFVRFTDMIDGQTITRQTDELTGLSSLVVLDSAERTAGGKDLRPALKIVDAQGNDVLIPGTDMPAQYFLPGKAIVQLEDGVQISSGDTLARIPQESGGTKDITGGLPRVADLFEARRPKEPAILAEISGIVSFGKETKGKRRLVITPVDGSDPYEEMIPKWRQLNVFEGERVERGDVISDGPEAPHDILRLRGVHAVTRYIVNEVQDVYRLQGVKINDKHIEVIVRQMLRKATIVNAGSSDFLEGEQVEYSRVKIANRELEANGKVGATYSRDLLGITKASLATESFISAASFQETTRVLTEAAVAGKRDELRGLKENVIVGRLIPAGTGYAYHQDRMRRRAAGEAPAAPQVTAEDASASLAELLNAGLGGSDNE
E. coli. RNA polymerase holoenzyme supplemented with additional recombinant sigma 70, sequence (P00579 whole entry): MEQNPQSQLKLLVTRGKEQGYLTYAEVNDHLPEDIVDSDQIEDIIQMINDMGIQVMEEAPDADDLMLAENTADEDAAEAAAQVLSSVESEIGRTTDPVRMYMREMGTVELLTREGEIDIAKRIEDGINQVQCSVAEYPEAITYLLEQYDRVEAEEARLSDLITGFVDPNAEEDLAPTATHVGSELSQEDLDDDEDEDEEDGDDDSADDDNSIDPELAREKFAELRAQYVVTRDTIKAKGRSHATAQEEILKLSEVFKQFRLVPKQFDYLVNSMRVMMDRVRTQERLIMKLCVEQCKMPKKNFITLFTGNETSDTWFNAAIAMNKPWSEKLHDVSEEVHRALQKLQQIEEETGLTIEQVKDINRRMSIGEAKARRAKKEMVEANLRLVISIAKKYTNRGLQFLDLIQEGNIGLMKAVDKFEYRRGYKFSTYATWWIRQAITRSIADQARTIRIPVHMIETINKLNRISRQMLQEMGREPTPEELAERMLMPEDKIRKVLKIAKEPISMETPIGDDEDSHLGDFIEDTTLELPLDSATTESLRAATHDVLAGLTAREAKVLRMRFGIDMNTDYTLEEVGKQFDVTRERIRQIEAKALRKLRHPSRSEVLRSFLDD

| SMILES | CPM A (label incorporated into transcript) [1] | CPM A (label incorporated into transcript) [2] |
| --- | --- | --- |
| CO[C@H]1/C=C/O[C@@]2(C)Oc3c(C)c(O)c4c(O)c(c(/C=N/N5CCN(C)CC5)c(O)c4c3C2=O)NC(=O)/C(C)=C\C=C\[C@H](C)[C@H](O)[C@@H](C)[C@@H](O)[C@@H](C)[C@H](OC(C)=O)[C@@H]1C [rifampin] | 717.00 CPM and 578.50 CPM and 452.50 CPM and 605.50 CPM | – |
| CCC(C)C1NC(=O)CNC(=O)C2Cc3c([nH]c4cc(O)ccc34)[S+]([O-])CC(NC(=O)CNC1=O)C(=O)NC(CC(N)=O)C(=O)N1CC(O)CC1C(=O)NC(C(C)C(O)CO)C(=O)N2 (stereo not drawn) [α-amanitin] | – | 6477.00 CPM and 6882.00 CPM and 6999.00 CPM and 7028.50 CPM |

— patent US5635349A, “High-throughput screening assay for inhibitors of nucleic acid polymerases” (Tularik, Inc., priority 1994, dated 1997)
